Source: US10799473B2, “Methods of inhibiting IGF-1R activation or downtream signalling thereof to reduce radiation-induced cellular senescence” (The Henry M. Jackson Foundation for the Advancement of …, priority 2013, dated 2020)
“Also recorded” adds a separate entry of the source.

Experiments:
[1] = tested on: Human pulmonary artery endothelial cells (HPAEC); assay: Cell morphology / cellular volume of X-ray irradiated HPAEC; type: cell-based; conditions: inhibitor pretreatment (AG1024 5 μM, Ly294002 20 μM, rapamycin 500 nM), 10 Gy X-rays, within 96 h
Experimental: (§1) Cell Culture and Reagents. Human pulmonary artery endothelial cells (HPAEC) were obtained from Cell Applications, Inc. (San Diego, Calif.) and cultured in EBM-2 basal medium containing supplements and growth factors as indicated in the manufacturer's protocol (Lonza, Walkersville, Md.). Cells were maintained at 37° C. in a humidified atmosphere containing 5% CO2. Subconfluent HPAEC at passages 4-8 were used for all experiments. The following chemical inhibitors and their final concentrations were used: AG1024 (5 μM, EMD Millipore, Billerica, Mass.), U0126 (10 μM), Ly294002 (20 μM), rapamycin (500 nM). […] 20 mM N-acetyl cysteine (NAC) was dissolved in distilled H2O.
(§2) Cell Irradiation: HPAEC were either irradiated or sham-irradiated at subconfluence (70-90%). Irradiations were conducted using RS2000 Biological Irradiator (Rad Source Technologies, Alpharetta, Ga.) with 0 3 mm Cu shielding at a dose rate of 2.4 Gy/min (160 kV, 25 mA) at room temperature.
Senescence-associated fl-galactosidase (SA-β-gal) Assay. SA-β-gal assay was performed according to established protocols with minor modifications (Dimri, Lee et al. 1995; Bandyopadhyay, Gatza et al. 2005). To avoid density-dependent false positive expression of SA-β-gal, HPAEC were seeded at a density of 1.0-2.0×10^4 on 12-well or 6-well dishes and allowed to reach 50-70% confluence prior to treatment. […]

p53 and p21/wafl = assay: Western blotting for p53 and p21/wafl expression in irradiated HPAEC; type: cell-based, human; conditions: western blot
Experimental: as §1, §2
(§3) Western blotting. […]
(§4) Protein concentrations from whole cell lysates were determined using Protein® BCA Protein Assay Kit (Thermo Scientific, Rockford, Ill.). […] Proteins were detected with horseradish peroxidase-linked secondary antibodies and SuperSignal® West Pico Chemiluminescent Substrate (Pierce, Rockford, Ill.). […]

[2] = tested on: Human pulmonary artery endothelial cells (HPAEC); assay: Senescence-associated β-galactosidase (SA-β-gal) assay in X-ray irradiated HPAEC; type: cell-based; conditions: HPAEC pretreated 30 minutes with inhibitor (AG1024 5 μM, Ly294002 20 μM, rapamycin 500 nM, U0126 10 μM), 10 Gy X-rays, 4 days post-irradiation
Experimental: Cell Culture and Reagents. Human pulmonary artery endothelial cells (HPAEC) were obtained from Cell Applications, Inc. (San Diego, Calif.) and cultured in EBM-2 basal medium containing supplements and growth factors as indicated in the manufacturer's protocol (Lonza, Walkersville, Md.). Cells were maintained at 37° C. in a humidified atmosphere containing 5% CO2. Subconfluent HPAEC at passages 4-8 were used for all experiments. The following chemical inhibitors and their final concentrations were used: […] 20 mM N-acetyl cysteine (NAC) was dissolved in distilled H2O. Cell Irradiation: HPAEC were either irradiated or sham-irradiated at subconfluence (70-90%). Irradiations were conducted using RS2000 Biological Irradiator (Rad Source Technologies, Alpharetta, Ga.) with 0 3 mm Cu shielding at a dose rate of 2.4 Gy/min (160 kV, 25 mA) at room temperature. Senescence-associated fl-galactosidase (SA-β-gal) Assay. SA-β-gal assay was performed according to established protocols with minor modifications (Dimri, Lee et al. 1995; Bandyopadhyay, Gatza et al. 2005). To avoid density-dependent false positive expression of SA-β-gal, HPAEC were seeded at a density of 1.0-2.0×10^4 on 12-well or 6-well dishes and allowed to reach 50-70% confluence prior to treatment. At indicated time-points postirradiation, cells were washed twice in ice cold PBS, fixed in 2% formaldehyde/0.2% glutaraldehyde in PBS for 5 min at room temperature and washed again twice in ice-cold PBS. 1.5-2 ml of freshly prepared X-gal staining solution (1 mg/ml of 5-bromo-4-chloro-3-indolyl β-D-galactoside in 40 mM citric acid/sodium phosphate, pH 6.0 (made by mixing 36.85 parts 0.1 M citric acid solution with 63.15 parts 0.2 M sodium phosphate solution and then verifying pH to be 6.0, 0.1M citric acid was added to adjust pH when necessary), 5 mM potassium ferrocyanide, 5 mM potassium ferricyanide, 150 mM NaCl, 2 mM MgCl2) was then added to the culture dishes and the dishes were incubated for 12-20 h at 37° C. (without CO2). After incubation, cells were washed twice in ice-cold PBS and once in methanol and allowed to dry. Cells were examined for perinuclear blue staining indicative of SA-β-gal activity in at least 3 random fields.

caspase-3 = assay: Western blotting for cleaved caspase-3 in irradiated HPAEC (radiation-induced apoptosis); type: cell-based, human; conditions: 6 hours post-irradiation
Experimental: as §1, §2, §3, §4

Akt S473 = assay: Western blotting for phosphorylated Akt (S473) in irradiated HPAEC; type: cell-based, human; conditions: 5 μM AG1024, 10 Gy X-rays, 3 hours post-irradiation
Experimental: as §1, §2, §3, §4

IGF-1R [3] = assay: Western blotting for IGF-1R phosphorylation in H2O2-treated HPAEC; type: cell-based, human
Experimental: as §1, §3, §4
(§5) Radiation-induced reactive oxygen species (ROS) are required for early IGF-1R phosphorylation. […] We then determined whether this ROS-induced phosphorylation is ligand-dependent by treating the cells with H2O2 in the presence of AG1024 and blotting for phosphorylated IGF-1R. […]

[4] = tested on: S6 ribosomal protein (Ser 235/236); assay: Western blotting for phosphorylated S6 ribosomal protein (Ser 235/236) in irradiated HPAEC; type: cell-based, human; conditions: 5 μM AG1024, 10 Gy X-rays, 72 hours post-irradiation
Experimental: as §1, §2, §3, §4

IGF-1R [5] = assay: Western blotting for IGF-1R phosphorylation in X-ray irradiated HPAEC; type: cell-based, human; conditions: 20 mM NAC 1 hour, 10 Gy X-rays, 3 hours post-irradiation
Experimental: as §1
Cell Irradiation: HPAEC were either irradiated or sham-irradiated at subconfluence (70-90%). […]
as §4, §5

## CC(C)(C)c1cc(C=C(C#N)C#N)cc(Br)c1O [AG1024]
[1]
  cellular morphology / change in cellular volume after radiation exposure: prevented the change in cellular volume
p53 and p21/wafl; 5 μM AG1024, 10 Gy X-rays
  radiation-induced p53 and p21/wafl expression: suppression
[2]
  radiation-induced accelerated senescence (SA-β-gal activity, percentage of SA-β-gal positive cells): Attenuation; also recorded: significantly reduced cellular senescence
caspase-3; 5 μM AG1024 30 minutes, 50 Gy X-rays
  levels of active (cleaved) caspase-3, radiation-induced apoptosis: does not regulate; also recorded: did not alter
Akt S473
  radiation-induced phosphorylation of Akt S473: had no effect
IGF-1R [3]; 5 μM AG1024 30 minutes, then 10 μM H2O2 20 minutes
  ROS (H2O2)-induced IGF-1R phosphorylation in presence of inhibitor: not inhibited
[4]
  phosphorylation of S6 ribosomal protein (Ser 235/236): significantly reduced

## OO [H2O2]
IGF-1R [3]; H2O2 1 μM and 10 μM, 20 minutes
  IGF-1R phosphorylation induced by H2O2 alone: sufficient to induce IGF-1R phosphorylation

## O=c1cc(N2CCOCC2)oc2c(-c3ccccc3)cccc12 [LY294002, 2-(4-Morpholinyl)-8-phenyl-4H-chromen-4-one]
[1]
  cellular morphology / change in cellular volume after radiation exposure: maintenance of normal cellular morphology
p53 and p21/wafl; 500 nM rapamycin or 20 μM Ly294002, 10 Gy X-rays
  radiation-induced p21/wafl expression: attenuated
[2]
  radiation-induced accelerated senescence (SA-β-gal activity, percentage of SA-β-gal positive cells): attenuated
[2]; listed as Ly294002
  radiation-induced accelerated senescence (SA-β-gal activity, percentage of SA-β-gal positive cells): Attenuation

## CC(=O)N[C@@H](CS)C(=O)O [NAC, N-acetyl-L-cysteine]
IGF-1R [5]
  IR-induced IGF-1R phosphorylation: attenuated

## N#CC(=C(/N)Sc1ccccc1N)/C(C#N)=C(\N)Sc1ccccc1N [U0126]
[2]
  radiation-induced accelerated senescence (SA-β-gal activity, percentage of SA-β-gal positive cells): did not rescue cells from undergoing accelerated senescence

## IGF-1: exogenous IGF-1 (IGF-1R activator), activating ligand of IGF-1R
caspase-3; exogenous IGF-1 50 ng/ml 18 hours, X-rays (10 Gy in legend, 50 Gy in text)
  levels of active (cleaved) caspase-3, radiation-induced apoptosis: does not regulate; also recorded: did not alter
